Measured values: patent publication US20120149700A1, “2-CYANOPHENYL FUSED HETEROCYCLIC COMPOUNDS, AND COMPOSTIONS AND USES THEREOF” (priority 2007, published 2012)

Experiments:
P2X2/3 = biological target: T1, P2X2/3 (Homo sapiens, UniProt P56373+Q9UBL9); assay: Calcium uptake assay (P2X antagonist assay, inhibition of agonist-induced calcium influx), P2X2/3; type: cell-based; details: inhibition of agonist-induced calcium influx in cells expressing the receptor
T1 construct: expressed in transfected cells; host or cells: cell line stably expressing P2X2, stably transfected with P2X3 (e.g. HEK293 or 1321N1)
T1 sequence (Q9UBL9 1-471): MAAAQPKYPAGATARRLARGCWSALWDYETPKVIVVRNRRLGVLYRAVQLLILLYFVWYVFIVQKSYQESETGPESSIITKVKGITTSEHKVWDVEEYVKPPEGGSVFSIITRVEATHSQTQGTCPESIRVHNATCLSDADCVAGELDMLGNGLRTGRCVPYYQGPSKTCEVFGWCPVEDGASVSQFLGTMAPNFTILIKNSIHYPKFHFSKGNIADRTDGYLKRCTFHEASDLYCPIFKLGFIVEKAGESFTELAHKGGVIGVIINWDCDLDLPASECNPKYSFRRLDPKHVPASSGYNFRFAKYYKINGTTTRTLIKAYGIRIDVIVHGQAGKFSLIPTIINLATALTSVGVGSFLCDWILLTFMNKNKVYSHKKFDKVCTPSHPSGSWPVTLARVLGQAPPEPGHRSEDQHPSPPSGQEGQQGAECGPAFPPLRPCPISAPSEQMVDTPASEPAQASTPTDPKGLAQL
T1 sequence (P56373 1-397): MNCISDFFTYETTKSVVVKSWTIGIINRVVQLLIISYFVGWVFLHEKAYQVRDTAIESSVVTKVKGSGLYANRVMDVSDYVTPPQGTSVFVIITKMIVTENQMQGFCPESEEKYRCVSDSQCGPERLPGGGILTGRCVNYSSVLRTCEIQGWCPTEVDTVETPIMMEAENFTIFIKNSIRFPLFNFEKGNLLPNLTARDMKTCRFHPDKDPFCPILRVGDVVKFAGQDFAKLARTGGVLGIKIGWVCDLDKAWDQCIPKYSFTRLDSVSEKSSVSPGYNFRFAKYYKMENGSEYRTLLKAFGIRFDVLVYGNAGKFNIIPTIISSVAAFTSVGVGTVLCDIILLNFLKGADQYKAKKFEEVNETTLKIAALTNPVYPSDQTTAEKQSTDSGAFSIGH
From the text: (§1) The human P2X2/3 chimera clone is created as described by Neelands et al, and then cloned into an expression vector as above. Receptors are expressed in cells (e.g., HEK293 or 1321N1 (obtained from the ECACC)) via transient transfection using standard lipid mediated transfection, or by creation of stable transfectants for each receptor. For expression of the P2X2/3 heteromeric receptor, the P2X3 expression vector is stably transfected into a cell line already stably expressing P2X2. P2X2/3 heteromer function is isolated using pharmacological methods. Cell lines are maintained in DMEM+5% Glutamax, the appropriate level of selective antibiotic, and 10% heat inactivated FBS.
(§2) Functional activity of compounds at the P2X receptor is determined by measuring their ability to inhibit agonist-induced calcium influx. Compounds are tested for antagonist activity against the P2X2/3 chimera, the P2X3 homomer, or the P2X2/3 heteromer. At the start of each screening day, the agonist EC50 is determined. Compound % inhibition or IC50s are subsequently determined using a pre-determined agonist concentration (EC50-90 depending on cell line) as a stimulus. The agonists used are αβMeATP, ATP, or other ATP analogs. Compounds may be tested at concentrations ranging from 1 pM to 10 μM.
(§3) To test for antagonist activity, cells expressing the appropriate receptor are seeded onto 96 or 384 well plates 18-24 hours prior to assay. […] Plates are incubated at 37° C. and then equilibrated at room temperature. Antagonism of agonist-induced calcium influx is measured using a fluorescent imaging plate reader (e.g. FLIPR^TETRA, Molecular Devices, Sunnyvale, Calif.). The assay comprises two stages: a pre-treatment phase followed by a treatment phase. Compounds may be tested as follows: For the pre-treatment phase, 50 μL of 3× concentration of test compound in HBSS is added to cells containing 100 μL of dye loading media to achieve a final concentration of 1× test compound. For the treatment phase, at a set interval after pre-treatment (1-30 minutes), 50 μl, of 1× test compound plus 4× agonist solution is added, resulting in a final concentration of 1× compound and 1× agonist. […] Responses are measured as (peak fluorescence after agonist addition) minus (baseline fluorescence prior to treatment). Percent inhibition is calculated as follows: […]
(§4) IC50 values are determined by analyzing dose response data in a 4 parameter logistic fit using GraphPad Prizm.

P2X3 = biological target: T2, P2X3 (Homo sapiens, UniProt P56373); assay: Calcium uptake assay (P2X antagonist assay, inhibition of agonist-induced calcium influx), P2X3; type: cell-based; details: inhibition of agonist-induced calcium influx in cells expressing the receptor
T2 construct: expressed in transfected cells; host or cells: e.g. HEK293 or 1321N1
T2 sequence (P56373 1-397): T1 sequence (P56373 1-397)
From the text: as §1, §2, §3, §4

SMILES | IC50 (P2X2/3) | IC50 (P2X3)
Cc1ccc(N2CCc3ncnc(N[C@@H](CCO)c4ccc(C(F)(F)F)nc4)c3C2)c(C#N)c1 [Compound 65, 2-{4-[(S)-3-Hydroxy-1-(6-trifluoromethyl-pyridin-3-yl)-propylamino]-7,8-dihydro-5H-pyrido[4,3-d]pyrimidin-6-yl}-5-methyl-benzonitrile] | 5420 nM | 806 nM
N#Cc1cc(Cl)ccc1N1CCc2ncnc(N[C@H](CO)c3ccc(C(F)F)nc3)c2C1 [Compound 72, 5-Chloro-2-[4-[(S)-1-(6-difluoromethyl-pyridin-3-yl)-2-hydroxy-ethylamino]-7,8-dihydro-5H-pyrido[4,3-d]pyrimidin-6-yl]-benzonitrile] | 404 nM | 16 nM
CC(=O)OCC[C@@H](Nc1ncnc2c1CN(c1ccc(C)cc1C#N)CC2)c1ccc(C(F)(F)F)nc1 [Compound 77, Acetic acid (R)-3-[6-(2-cyano-4-methyl-phenyl)-5,6,7,8-tetrahydro-pyrido[4,3-d]pyrimidin-4-ylamino]-3-(6-trifluoromethyl-pyridin-3-yl)-propyl ester] | 536 nM | 130 nM
Cc1ccc(N2CCc3ncnc(NCc4ccc5ccccc5n4)c3C2)c(C#N)c1 [Compound 80, 5-Methyl-2-(4-(quinolin-2-ylmethylamino)-7,8-dihydropyrido[4,3-d]pyrimidin-6(5H)-yl)benzonitrile] | 263 nM | 156 nM
Cc1ccc(N2CCc3ncnc(NCc4ccc5cc[nH]c5c4)c3C2)c(C#N)c1 [Compound 81, 2-(4-((1H-Indol-6-yl)methylamino)-7,8-dihydropyrido[4,3-d]pyrimidin-6(5H)-yl)-5-methylbenzonitrile] | 2160 nM | 423 nM
Cc1ccc(N2CCc3ncnc(NCc4ccc5c(c4)OCO5)c3C2)c(C#N)c1 [Compound 82, 2-(4-(Benzo[d][1,3]dioxol-5-ylmethylamino)-7,8-dihydropyrido[4,3-d]pyrimidin-6(5H)-yl)-5-methylbenzonitrile] | 310 nM | 56 nM
N#Cc1cc(Cl)ccc1N1CCc2ncnc(NCc3ccc4nccnc4c3)c2C1 [Compound 84, 5-Chloro-2-{4-[(quinoxalin-6-ylmethyl)-amino]-7,8-dihydro-5H-pyrido[4,3-d]pyrimidin-6-yl}-benzonitrile] | 478 nM | 125 nM

The next compounds have a lower IC50 (P2X2/3) than those just listed; values first:

IC50 (P2X2/3) | IC50 (P2X3) | SMILES
241 nM | 40 nM | Cc1ccc(CNc2ncnc3c2CN(c2ccc(Cl)cc2C#N)CC3)cc1S(C)(=O)=O [Compound 76, 5-Chloro-2-[4-(3-methanesulfonyl-4-methyl-benzylamino)-7,8-dihydro-5H-pyrido[4,3-d]pyrimidin-6-yl]-benzonitrile]
120 nM | 37 nM | Cc1ccc(N2CCc3ncnc(NCc4ccc(Cl)c(S(C)(=O)=O)c4)c3C2)c(C#N)c1 [Compound 71, 2-[4-(4-Chloro-3-methanesulfonyl-benzylamino)-7,8-dihydro-5H-pyrido[4,3-d]pyrimidin-6-yl]-5-methyl-benzonitrile]
67 nM | 34 nM | Cc1ccc(N2CCc3ncnc(NCc4ccc5nccnc5c4)c3C2)c(C#N)c1 [Compound 79, 5-Methyl-2-(4-(quinoxalin-6-ylmethylamino)-7,8-dihydropyrido[4,3-d]pyrimidin-6(5H)-yl)benzonitrile]
59 nM | 23 nM | Cc1ccc(N2CCc3ncnc(N[C@H](CCO)c4ccc(C(F)(F)F)nc4)c3C2)c(C#N)c1 [Compound 64, 2-{4-[(R)-3-Hydroxy-1-(6-trifluoromethyl-pyridin-3-yl)-propylamino]-7,8-dihydro-5H-pyrido[4,3-d]pyrimidin-6-yl}-5-methyl-benzonitrile]
24 nM | 20 nM | Cc1ccc(N2CCc3ncnc(NCc4ccc5cccnc5c4)c3C2)c(C#N)c1 [Compound 92, 5-Methyl-2-(4-(quinolin-7-ylmethylamino)-7,8-dihydropyrido[4,3-d]pyrimidin-6(5H)-yl)benzonitrile]
